In patent US11059815B2, “Synthesis of small molecule histone deacetylase 6 degraders, compounds formed thereby, and pharmaceutical compositions containing them” (Wisconsin Alumni Research Foundation, priority 2018, dated 2021):

How the values were obtained:
IKZF1/3 = test: Western blot of IKZFs in MM1S cells; format: cell-based, human
Experimental: FIGS. 10A and 10B are western blot analysis of MM1S cells treated with selected candidates from C4-lined series (FIG. 10A) and C5-lined series (FIG. 10B) for 6 h.
FIGS. 12A, 12B, and 12C are a series of western blots showing that degrader 12d selectively promotes HDAC6 degradation in MM1S cells.
As discussed before, pomalidomide and its analogues are known to activate CRBN's E3 ligase activity for the degradation of IKZFs. […] IKZFs regulate the expression of interferon regulatory factor 4 (IRF4) and c-Myc to affect the proliferation of multiple myeloma (MM). […] PROTACs with IKZF degradation activity have been reported in a number of cases and the IKZFs are often considered as “off-targets” during the development of these PROTACs. The results presented here indicate that the IKZF degradation activity can be impacted by the linker position and the functional group next to the phthalimide ring. In the studies, the triazole ring linked to C4 position likely contributed to the induced interaction between CRBN and IKZFs.
To evaluate the activity and selectivity of 12d, a full dose response experiment was performed with compound concentrations ranging from 0.3 nM to 10 μM in MM1S cells (FIG. 12A) for several HDACs, IKZFs, and Ac-tubulin. […] Degrader 12d reduced HDAC6 protein content at as low as 3 nM and achieved maximal effects around 30 nM. […] See Douglass et al. 2013, supra. The degradation of IKZFs started from 30 nM and was dose-dependent. It is interesting to see the more efficient degradation of HDAC6, which requires the formation of ternary complex, than that of IKZFs, which only requires the formation of binary complex. In addition to the distinct mechanism, the different turnover rates of HDAC6 and IKZFs may also contribute to the observed results. The acetylated tubulin level was also dose-dependent. At higher concentrations (3 μM and 10 μM), tubulin acetylation was not […] in response to recovered HDAC6 expression by “hook effect”. The elevated tubulin acetylation at higher concentrations was likely due to the combination of HDAC6 degradation and HDAC6 inhibition.
To probe the efficiency of 12d, MM1S was treated with 100 nM 12d and the change of HDAC6 protein level was monitored by time. The HDAC6 degradation started around 1 h and reached maximal degradation effect at 4 h. The degradation of IKZFs was only observed after 4 h. Meanwhile, HDAC1 was not affected and the acetylation of tubulin was accumulated by time. […] HDAC6 expression was monitored for 48 h. […]
When the cells reached 90% confluence, they were harvested and plated 1×10^6 cells per well in 6-well plate. […] Protein concentration was measured by using the Pierce BCA protein assay (Thermo Fisher Scientific). […]

HDAC6 and related genes = test: qRT-PCR of mRNA level of HDAC6 and related genes; format: cell-based, human; conditions: 6 h treatment
Description: To support the involvement of ubiquitination-proteasome system for the decrease of HDAC6 protein level, the degrader was co-treated with binding competitors or pathway blockers. […] Moreover, it also confirmed the role of the pomalidomide moiety in modulating IKZFs. […] Additionally, proteasome inhibitor MG132 and Bortezomib were used to block the down-stream proteasome degradation. […] Acetylated tubulin level was suppressed as well. This confirms that HDAC6 degradation is responsible for the acetylation of its substrates rather than inhibition by the “warhead” moiety. To exclude the possible transcriptional impact by degraders, qRT-PCR was used to examine the mRNA level of HDAC6 and related genes (data not shown). […] This is consistent with the hypothesis that the cellular knockdown of HDAC6 is due to direct protein degradation, not by transcriptional downregulation.
After treatment, cells were harvested and washed with cold PBS twice. […] The concentration of RNA was measured by Plate Reader. […] Ct value at automatically selected threshold was reported and calculated by 2^−ΔΔCt method. (Livak, K. J.; Schmittgen, T. D. “Analysis of Relative Gene Expression Data Using Real-Time Quantitative PCR and the 2 C T Method” METHODS 2001, 25, 402-408. The bar graph was generated and by GraphPad Prism.

Structure (SMILES): CCCCN(Cc1ccc(C(=O)NO)cc1)C(=O)Nc1ccc(OCCCCCn2cc(CNc3cccc4c3C(=O)N(C3CCC(=O)NC3=O)C4=O)nn2)cc1 (centres unmarked) [Compound 12d, 4-((1-butyl-3-(4-((5-(4-(((2-(2,6-dioxopiperidin-3-yl)-1,3-dioxoisoindolin-4-yl)amino)methyl)-1H-1,2,3-triazol-1-yl)pentyl)oxy)phenyl)ureido)methyl)-N-hydroxybenzamide]
- IKZF3 recovery after wash-out (IKZF1/3; 100 nM for 6 h, washed with PBS, after 12 h): quickly recovered
- induced degradation of IKZF1/3 (IKZF1/3; 100 nM, 6 h, MM1S): retained the induced degradation
- time after which degradation of IKZFs was observed (IKZF1/3; 100 nM, MM1S): > 4 h
- concentration from which degradation of IKZFs started (IKZF1/3; 12d dose response 0.3 nM to 10 μM, MM1S): ≥ 30 nM
- effect on mRNA level of HDACs and IKZFs (HDAC6 and related genes): Little to no effects
